Measurements from patent US10624892B2, “Agent against fungal infections” (priority 2015, dated 2020).

What was measured:
Aspergillus niger = assay: Aspergillus pneumonia in immunodeficient mice, aerosol treatment, microbial contamination of the lungs; format: in vivo, white mongrel mice; settings: for Number of colonies (in different dilutions), 10^−2: dilution 10^−2, Saburo medium
Procedure: The studies were conducted on white mongrel mice (females, 6-8 weeks) in Rappolovo (Leningrad region), the quarantine period was 2 weeks. To reproduce aspergillus pneumonia of the mouse, in order to create an immunodeficiency, a cyclophosphamide solution (150 mg/kg) was injected once intraperitoneally. Three days later, the mice were injected hydrocortisone (250 mg/kg), intraperitoneally, once. One day after the hydrocortisone administration the mice were infected with a suspension of Aspergillus niger (approximately 3×10^7 cell/ml) intranasally, under ether anesthesia. On the 5th day after infection, 5 animals from each group were taken to study microbial contamination of the lungs (euthanasia in rodents was performed with an overdose of ether). From the lung tissue, homogenates were prepared in which the titer of Aspergillus genus fungi was determined. Observation over the remaining mice was carried out within 14 days after infection for mortality accounting. The test solutions were injected in an aerosol chamber. In the course of the experiment, the following groups of animals were formed: • 1—spray control (K), 3 identical groups (K1, K2, K3). The animals infected with Aspergillus and receiving an aerosol of isotonic sodium chloride solution. • 2—The associate of 5-[3,5-dichloro-2-hydroxybenzylidene)amino]-4-hydroxy-1H-pyrimidin-2-one salt with 1,2,3,4,5-pentahydroxy-6-methylaminohexane, 3 identical groups (E1-3). The animals infected with Aspergillus and receiving an aerosol of 0.1% of the preparation under study. • 3. Aqueous solution of substance I-1 • 4. Aqueous solution of substance I-2 • 5. Aqueous solution of substance I-3 • 6. Aqueous solution of substance I-4 • 7. Aqueous solution of substance I-5 • 8. Aqueous solution of substance I-6 • 9. Aqueous solution of substance I-7. The animals were placed into aerosol chambers (12 l) for a period of 30 minutes, during which 500 ml of air passed through the lungs. As an aerosol generator, an ultrasonic nebulizer OMRON U1 (Japan) was used. To maintain a constant concentration of the aerosol of the preparation in the chamber, a vortex pneumatic generator in pulsed spraying mode was used to obtain a stable aerosol with a particle size of 3 m. The animals were placed into immobilization containers and exposed to the obtained aerosol for 30 minutes once a day for 3 days, starting from the first day after the infection. From the samples of homogenized lung tissues, a number of successive dilutions were prepared, followed by seeding on to Saburo medium.

Leveillula taurica = assay: Treatment of powdery mildew on begonia tuberosa by spray; format: in vivo, Begonia tuberosa hybridum
Procedure: The study was carried out on begonia tuberosa (Begonia tuberosa hybridum), infected with powdery mildew. Powdery mildew affects many plants, including trees and shrubs. Powdery mildew affects chrysanthemums, begonias, and roses; it is manifested in appearance of a white, sometimes darkening spew on green parts of plants. The plant disease is transmitted by spores through the air. The test plants were infected with spores of the fungus (Leveillula taurica) and kept until a white spew appeared on the leaves. Three leaves on each plant were infected. After appearance of the spew, the plants of the control group (3 plants) were isolated from the 3 plants treated with a spray, which is an aqueous solution of substance I-3. The treatment was performed once in a day for 3 and 7 days. After completion of the treatment, the observation over the plants was continued for another 3 weeks. During the observation, an increase in the amount of spew representing the fungal mycelium was registered in the control plants and the number of affected leaves increased, on average, to 7-8, while the spew covered the stems of the plants as well.

Candida albicans = assay: Candidamycosis of mammals: intradermal Candida albicans ulceration in rabbits, topical treatment; format: in vivo; settings: for Complete cure by day 7: scarring of the lesion by day 7, 0.1% oil (olive oil) solution applied twice a day for 7 days
Procedure: Rabbits were inoculated intradermally with a suspension of a 48-hour Candida albicans culture at a dose of 10,000 fungal cells in […] of a 0.9% sodium chloride solution. […] For the study, a 0.1% oil (olive oil) solution of the 5-[3,5-dichloro-2-hydroxybenzylidene)amino]-4-hydroxy-1H-pyrimidin-2-one salt associate with 1,2,3,4,5-pentahydroxy-6-methylaminohexane and substance I-3 were prepared. Sterile water was used as the control substance. The duration of treatment was 7 days, starting from the 1st day after ulceration. The preparations were applied with a cotton swab twice a day—in the morning and in the evening. The criterion for mycological cure was the absence of the yeast and mycelial forms of Candida, and the criterion for complete cure was the scarring of the lesion by day 7.

[1] = cited from earlier work
[2] = lung homogenate, 5th day after infection, aerosol 30 minutes once a day for 3 days

Structure (SMILES)	Number of colonies (in different dilutions), 10^−2 (Aspergillus niger; [2]) [col]	increase or spread of the fungus to other parts of the plant (Leveillula taurica; aqueous solution spray once in a day for 3 and 7 days, observation for another 3 weeks)	growth of the fungi when flushed from the leaf and plated on a nutrient medium (Leveillula taurica; flush from treated leaf, nutrient medium)	Presence of mycelium of fungi in the smear, 5 day (Candida albicans; 5 day, 0.1% oil (olive oil) solution applied twice a day)	overall effect of treatment (Candida albicans; conclusion from Table 3)	Complete cure by day 7 (Candida albicans)	overall antifungal effectiveness among tested agents (Aspergillus niger; conclusion from Table 2)	solubility in oil solutions ([1]; oil solutions)	solubility in water ([1]; water) [%]	Number of colonies (in different dilutions), 10^−4 (Aspergillus niger; lung homogenate, 5th day after infection, dilution 10^−4, Saburo medium, aerosol 30 minutes once a day for 3 days) [col]
Cc1[nH]c(=O)[nH]c(=O)c1N=Cc1ccc([N+](=O)[O-])cc1.[Na] [Substance I-1, 2,4-dioxo-5-(4-nitrobenzylidene)amino-6-methyl-1,3-pyrimidine sodium salt]	5									
Cc1[nH]c(=O)[nH]c(=O)c1N=Cc1cc(Cl)cc(Cl)c1O.[Na] [Substance I-3, 2,4-dioxo-5-(2-hydroxy-3,5-dichlorobenzylidene) amino-6-methyl-1,3-pyrimidine sodium salt]	2	no increase or spread of the fungus to other parts of the plant was recorded	no growth of the fungi was recorded	no growth	positive effect is achieved	Achieved	most effective antifungal agent			
CNCC(O)C(O)C(O)C(O)CO.O=c1nc(O)c(N=Cc2cc(Cl)cc(Cl)c2O)c[nH]1 [associate of 5-[3,5-dichloro-2-hydroxybenzylidene)amino]-4-hydroxy-1H-pyrimidin-2-one salt with 1,2,3,4,5-pentahydroxy-6-methylaminohexane, reference compound]	12					Absent		up to 0.3%	≤ 0.4	2
